Measured values from US20090291088A1, “THERAPEUTIC COMBINATIONS OF ANTI-IGF-1R ANTIBODIES AND OTHER COMPOUNDS” (Biogen Idec MA Inc., priority 2008, published 2009).

Tests used:
[1] = system: IGF-1R; experiment: Biacore analysis of the IGF-1R-Fc mutant library: M13-C06 Fab binding to receptor-Fc captured on M13-C06 chip; design: species or system human; details: M13-C06 Fab binding to mutant hIGF-1R-Fc captured on M13-C06 chip
From the text: Both mIGF-1R-Fc and hIGF-1R-Fc bind with high apparent affinity to the M13-C06, M14-C03, and M14-G11 sensorchip surfaces described above due to their highly multivalent nature induced by the incorporation of two separate homodimeric regions (IGF-1R and IgG1-Fc). To distinguish between the actual high affinity binding hIGF-1R-Fc to M13-C06 and the low affinity binding of mIGF-1R-Fc to M13-C06, the receptor-Fc fusions were captured on the M13-C06 sensorchip surface followed by an additional soluble M13-C06 Fab binding event. […] After, completion of the receptor-Fc loading step, flow rates were elevated to 5 μl/min. 10 nM, […], and 1 nM M13-C06 Fab concentrations were injected (50 μL) subsequent to the loading of each receptor-Fc construct. At the end of each sensorgram, the flow rate was elevated to 30 μl/min and the chip surface was regenerated by 2×10 μL injections of 0.1 M glycine, pH 2.

[2] = system: IGF-1R-Fc; experiment: Surface plasmon resonance analysis of the IGF-1R-Fc mutant library (46 mutants); type: binding, human; details: for C06 binding: M13-C06 Fab; for C06 binding / G11 binding / C03 binding / P1E2 binding / αIR3 binding: KD relative to WT hIGF-1R-Fc; for G11 binding: M14-G11 Fab; for C03 binding: M14-C03 Fab; for P1E2 binding: P1E2 antibody; for αIR3 binding: αIR3 antibody
Experimental: Surface plasmon resonance (SPR) experiments were performed on a Biacore 3000 instrument set to 25° C. Both mIGF-1R-Fc and hIGF-1R-Fc bind with high apparent affinity to research grade CM5 sensorchip surfaces containing immobilized M13-C06, M14-C03, and M14-G11. The antibody sensorchip surfaces were prepared by injecting each antibody (diluted 100 μg/mL in 10 mM Acetate, pH 4.0) over EDC/NHS-activated sensorchip surfaces according to the standard protocol of the manufacturer. The ability of mIGF-1R-Fc to bind the antibody surfaces was the result of high apparent avidity of the protein. Both hIGF-1R-Fc and mIGF-1R-Fc proteins oligomerize due to the incorporation of two separate homodimeric regions (IGF-1R and IgG1-Fc). To distinguish between actual high affinity antibody binding to hIGF-1R-Fc and low affinity antibody binding to mIGF-1R-Fc, the receptor-Fc fusions were captured on the M13-C06 and M14-G11 sensorchip surfaces followed by an additional injection of antibody (αIR3 and P1E2) or antibody Fab (M13-C06, M14-C03, and M14-G11). […] After, completion of the receptor-Fc loading step, flow rates were elevated to 5 μl/min. Solutions containing M13-C06 Fab or αIR3 antibody at 10 nM, 3 nM, or 1 nM or M14-C03 Fab, M14-G11 Fab, or P1E2 antibody at 30 nM, 10 nM, or 3 nM were injected (50 μL) subsequent to the loading of each receptor-Fc construct. Dissociation was measured for 7 minutes after the antibody injections were complete. Finally, the flow rate was elevated to 30 μL/min and the chip surfaces were regenerated by 2×10 μL injections of 0.1 M glycine, pH 2.
M13-C06, M14-C03, M14-G11, P1E2 and αIR3 were assayed for their ability to interact with each of the mutant IGF-1R-Fc fusion constructs using surface plasmon resonance (Biacore). To remove the uncertain concentrations of the IGF-1R-Fc fusion constructs as a variable in the assay, each mutant construct was captured on a research grade CM5 chip containing ˜10,000 RU immobilized […], M14-C03, and M14-G11 antibody. To enhance our ability to visualize attenuations in antibody binding to the captured mutant IGF-1R constructs, we utilized enzymatically derived M13-C06, M14-C03, and M14-G11 antigen binding fragments (Fabs).

With SD001: hIGF-1R-Fc mutant Y28A the “Biacore Relative RUmax” value [1] was 0.6, the C06 binding [2] was “NE (No effect (NE): measured KD within 2.5-fold of WT hIGF-1R-Fc)” and the G11 binding [2] was “NE (No effect (NE): measured KD within 2.5-fold of WT hIGF-1R-Fc)”.
In the case of SD002: hIGF-1R-Fc mutant M156A, the “Biacore Relative RUmax” value [1] is reported as 1.2, the C06 binding [2] is reported as “NE (No effect (NE): measured KD within 2.5-fold of WT hIGF-1R-Fc)” and the G11 binding [2] is reported as “NE (No effect (NE): measured KD within 2.5-fold of WT hIGF-1R-Fc)”.
For SD003: hIGF-1R-Fc mutant T188F, the “Biacore Relative RUmax” value [1] was 1.0, the C06 binding [2] was “NE (No effect (NE): measured KD within 2.5-fold of WT hIGF-1R-Fc)” and the G11 binding [2] was “NE (No effect (NE): measured KD within 2.5-fold of WT hIGF-1R-Fc)”.
SD004: hIGF-1R-Fc mutant S210H_A211Q was tested, and the “Biacore Relative RUmax” value [1] was 0.8, the C06 binding [2] was “NE (No effect (NE): measured KD within 2.5-fold of WT hIGF-1R-Fc)” and the C03 binding [2] was “NE (No effect (NE): measured KD within 2.5-fold of WT hIGF-1R-Fc)”. For the same substance, the G11 binding [2] was “NE (No effect (NE): measured KD within 2.5-fold of WT hIGF-1R-Fc)”.
In the case of SD005: hIGF-1R-Fc mutant A217T, the “Biacore Relative RUmax” value [1] is reported as 0.9, the C06 binding [2] is reported as “NE (No effect (NE): measured KD within 2.5-fold of WT hIGF-1R-Fc)” and the C03 binding [2] is reported as “NE (No effect (NE): measured KD within 2.5-fold of WT hIGF-1R-Fc)”. For the same substance, the G11 binding [2] was “NE (No effect (NE): measured KD within 2.5-fold of WT hIGF-1R-Fc)”.
For SD101: hIGF-1R-Fc mutant S427L, the C06 binding [2] was “NE (No effect (NE): measured KD within 2.5-fold of WT hIGF-1R-Fc)” and the C03 binding [2] was “NE (No effect (NE): measured KD within 2.5-fold of WT hIGF-1R-Fc)”.
With SD102: hIGF-1R-Fc mutant E459A S460A the C06 binding [2] was “S (Strong (S): binding to antibody was ablated by mutation)” and the C03 binding [2] was “S (Strong (S): binding to antibody was ablated by mutation)”.
In the case of SD103: hIGF-1R-Fc mutant D461A V462T, the “effect of mutation on M13-C06 and M14-C03 Fab binding” value [2] is reported as “no reactivity towards the M13-C06 and M14-C03 Fabs”, the C06 binding [2] is reported as “S-most” and the C03 binding [2] is reported as “S-most”.
SD104: hIGF-1R-Fc mutant H464A was tested, and the C06 binding [2] was “S (Strong (S): binding to antibody was ablated by mutation)” and the C03 binding [2] was “S (Strong (S): binding to antibody was ablated by mutation)”.
With SD105: hIGF-1R-Fc mutant T466L S467Y the C06 binding [2] was “W (Weak (W): measured KD between 2.5-10-fold higher than WT)” and the C03 binding [2] was “W (Weak (W): measured KD between 2.5-10-fold higher than WT)”.
SD106: hIGF-1R-Fc mutant T468R was tested, and the C06 binding [2] was “NE (No effect (NE): measured KD within 2.5-fold of WT hIGF-1R-Fc)” and the C03 binding [2] was “NE (No effect (NE): measured KD within 2.5-fold of WT hIGF-1R-Fc)”.
In the case of SD107: hIGF-1R-Fc mutant T478R, the C06 binding [2] is reported as “NE (No effect (NE): measured KD within 2.5-fold of WT hIGF-1R-Fc)” and the C03 binding [2] is reported as “W (Weak (W): measured KD between 2.5-10-fold higher than WT)”.
In the case of SD108: hIGF-1R-Fc mutant H480E, the C06 binding [2] is reported as “S (Strong (S): binding to antibody was ablated by mutation)” and the C03 binding [2] is reported as “S (Strong (S): binding to antibody was ablated by mutation)”.
SD109: hIGF-1R-Fc mutant Y482A R483W was tested, and the C06 binding [2] was “S (Strong (S): binding to antibody was ablated by mutation)” and the C03 binding [2] was “S (Strong (S): binding to antibody was ablated by mutation)”.
With SD110: hIGF-1R-Fc mutant E533H the C06 binding [2] was “W (Weak (W): measured KD between 2.5-10-fold higher than WT)” and the C03 binding [2] was “S (Strong (S): binding to antibody was ablated by mutation)”.
SD111: hIGF-1R-Fc mutant I564T R565A was tested, and the C06 binding [2] was “W (Weak (W): measured KD between 2.5-10-fold higher than WT)” and the C03 binding [2] was “W (Weak (W): measured KD between 2.5-10-fold higher than WT)”.
SD112: hIGF-1R-Fc mutant K568A was tested, and the C06 binding [2] was “NE (No effect (NE): measured KD within 2.5-fold of WT hIGF-1R-Fc)” and the C03 binding [2] was “W (Weak (W): measured KD between 2.5-10-fold higher than WT)”.
In the case of SD113: hIGF-1R-Fc mutant E570A I571T, the C06 binding [2] is reported as “S (Strong (S): binding to antibody was ablated by mutation)” and the C03 binding [2] is reported as “S (Strong (S): binding to antibody was ablated by mutation)”.
In the case of SD201: hIGF-1R-Fc mutant D248A, the G11 binding [2] is reported as “S (Strong (S): binding to antibody was ablated by mutation)”, the P1E2 binding [2] is reported as “W (Weak (W): measured KD between 2.5-10-fold higher than WT)” and the αIR3 binding [2] is reported as “S (Strong (S): binding to antibody was ablated by mutation)”.
With SD202: hIGF-1R-Fc mutant D250S the G11 binding [2] was “S (Strong (S): binding to antibody was ablated by mutation)”, the P1E2 binding [2] was “NE (No effect (NE): measured KD within 2.5-fold of WT hIGF-1R-Fc)” and the αIR3 binding [2] was “NE (No effect (NE): measured KD within 2.5-fold of WT hIGF-1R-Fc)”.
With SD203: hIGF-1R-Fc mutant N254A the G11 binding [2] was “M (Medium (M): measured KD between 10-100-fold higher than WT)”, the P1E2 binding [2] was “S (Strong (S): binding to antibody was ablated by mutation)” and the αIR3 binding [2] was “M (Medium (M): measured KD between 10-100-fold higher than WT)”.
With SD204: hIGF-1R-Fc mutant S257K the G11 binding [2] was “W (Weak (W): measured KD between 2.5-10-fold higher than WT)”, the P1E2 binding [2] was “M (Medium (M): measured KD between 10-100-fold higher than WT)” and the αIR3 binding [2] was “NE (No effect (NE): measured KD within 2.5-fold of WT hIGF-1R-Fc)”.
With SD205: hIGF-1R-Fc mutant E259K S260N the G11 binding [2] was “W (Weak (W): measured KD between 2.5-10-fold higher than WT)”, the P1E2 binding [2] was “NE (No effect (NE): measured KD within 2.5-fold of WT hIGF-1R-Fc)” and the αIR3 binding [2] was “NE (No effect (NE): measured KD within 2.5-fold of WT hIGF-1R-Fc)”.
For SD206: hIGF-1R-Fc mutant S263R, the G11 binding [2] was “W (Weak (W): measured KD between 2.5-10-fold higher than WT)”, the P1E2 binding [2] was “NE (No effect (NE): measured KD within 2.5-fold of WT hIGF-1R-Fc)” and the αIR3 binding [2] was “W (Weak (W): measured KD between 2.5-10-fold higher than WT)”.
For SD207: hIGF-1R-Fc mutant G265Y, the G11 binding [2] was “W (Weak (W): measured KD between 2.5-10-fold higher than WT)”, the P1E2 binding [2] was “S (Strong (S): binding to antibody was ablated by mutation)” and the αIR3 binding [2] was “S (Strong (S): binding to antibody was ablated by mutation)”.
With SD208: hIGF-1R-Fc mutant V301Y the G11 binding [2] was “NE (No effect (NE): measured KD within 2.5-fold of WT hIGF-1R-Fc)”, the P1E2 binding [2] was “NE (No effect (NE): measured KD within 2.5-fold of WT hIGF-1R-Fc)” and the αIR3 binding [2] was “W (Weak (W): measured KD between 2.5-10-fold higher than WT)”.
For SD209: hIGF-1R-Fc mutant K306E, the G11 binding [2] was “NE (No effect (NE): measured KD within 2.5-fold of WT hIGF-1R-Fc)”, the P1E2 binding [2] was “NE (No effect (NE): measured KD within 2.5-fold of WT hIGF-1R-Fc)” and the αIR3 binding [2] was “NE (No effect (NE): measured KD within 2.5-fold of WT hIGF-1R-Fc)”.
In the case of SD210: hIGF-1R-Fc mutant T308E, the G11 binding [2] is reported as “NE (No effect (NE): measured KD within 2.5-fold of WT hIGF-1R-Fc)”, the P1E2 binding [2] is reported as “NE (No effect (NE): measured KD within 2.5-fold of WT hIGF-1R-Fc)” and the αIR3 binding [2] is reported as “W (Weak (W): measured KD between 2.5-10-fold higher than WT)”.
SD211: hIGF-1R-Fc mutant K327N was tested, and the G11 binding [2] was “NE (No effect (NE): measured KD within 2.5-fold of WT hIGF-1R-Fc)”, the P1E2 binding [2] was “NE (No effect (NE): measured KD within 2.5-fold of WT hIGF-1R-Fc)” and the αIR3 binding [2] was “W (Weak (W): measured KD between 2.5-10-fold higher than WT)”.
SD212: hIGF-1R-Fc mutant L379R was tested, and the G11 binding [2] was “NE (No effect (NE): measured KD within 2.5-fold of WT hIGF-1R-Fc)”, the P1E2 binding [2] was “NE (No effect (NE): measured KD within 2.5-fold of WT hIGF-1R-Fc)” and the αIR3 binding [2] was “W (Weak (W): measured KD between 2.5-10-fold higher than WT)”.
With SDWT: wild-type hIGF-1R-Fc the “Biacore Relative RUmax” value [1] was 1.0.
